Reference: patent US7674789B2, “Compounds” (Glaxo Group Limited, priority 2005, dated 2010)
Structures can show the parent of a compound that is named as a salt.

system: IL-6, IL-8, GM-CSF, RANTES and COX-2; test: not given; conditions: a number of different cell types; cited from earlier work

**Q.** With `Fc1ccc(-c2nc3n(c2-c2ccncc2)CCS3)cc1` [SK&F 86002] as the compound, how does the “decreasing the synthesis of pro-inflammatory proteins including IL-6, IL-8, GM-CSF, RANTES and COX-2” value read?
**A.** effective

**Q.** For `C[S+]([O-])c1ccc(-c2nc(-c3ccncc3)c(-c3ccc(F)cc3)[nH]2)cc1` (stereo not shown) [SB-203580], which “decreasing the synthesis of pro-inflammatory proteins including IL-6, IL-8, GM-CSF, RANTES and COX-2” value is on record?
**A.** effective

system: TGF-β-induced fibronectin and thrombospondin; test: not given; conditions: Laping et al., 2002, Molec. Pharmacol. 62:58-64; cited from earlier work

**Q.** Which “effect on TGF-β-induced increases in fibronectin and thrombospondin” value does the source give for `COc1nccc(-c2c(-c3ccc(F)cc3)ncn2C2CCNCC2)n1` [SB-242235] here?
**A.** inhibited

system: influx of neutrophils to the lung in LPS-challenged rats; test: Rat LPS neutrophilia model; assay type: in vivo; conditions: intratracheal compound 15 min-24 hours before LPS aerosol (100 ug/ml, 15 min), lavage 4 hours later, in at least one of the range of conditions tested

**Q.** Which “inhibition of neutrophilia (neutrophil influx to the lung)” value (from here on “inhibition of neutrophilia”) does the source give for `Cc1c(F)cc(C(=O)Nc2ccccc2)cc1-c1nc(NCCN(C)C)nc2c1CNC(=O)N2c1c(F)cccc1F` [Example 112, 3-(8-(2,6-difluorophenyl)-2-{[2-(dimethylamino)ethyl]amino}-7-oxo-5,6,7,8-tetrahydropyrimido[4,5-d]pyrimidin-4-yl)-5-fluoro-4-methyl-N-phenylbenzamide] here?
**A.** statistically significant inhibition of neutrophilia

**Q.** Which “inhibition of neutrophilia” value does the source give for `CCN(CC)CCCNc1nc(-c2cc(C(=O)NC)ccc2C)c2c(n1)N(c1c(F)cccc1F)C(=O)NC2` [Example 172, 3-[2-{[3-(diethylamino)propyl]amino}-8-(2,6-difluorophenyl)-7-oxo-5,6,7,8-tetrahydropyrimido[4,5-d]pyrimidin-4-yl]-N,4-dimethylbenzamide] here?
**A.** statistically nonsignificant inhibition of neutrophilia

**Q.** Which “inhibition of neutrophilia” value does the source give for `Cc1ccc(C(=O)Nc2ccccc2)cc1-c1nc(NCCN(C)C)nc2c1CNC(=O)N2c1c(F)cccc1F` [Example 137, 3-(8-(2,6-difluorophenyl)-2-{[2-(dimethylamino)ethyl]amino}-7-oxo-5,6,7,8-tetrahydropyrimido[4,5-d]pyrimidin-4-yl)-4-methyl-N-phenylbenzamide] here?
**A.** statistically significant inhibition of neutrophilia

**Q.** Which “inhibition of neutrophilia” value does the source give for `Cc1ccc(C(=O)NC(C)C)cc1-c1nc(N2CCCN(C)CC2)nc2c1CNC(=O)N2c1c(F)cccc1F` [Example 179, 3-[8-(2,6-difluorophenyl)-2-(4-methylhexahydro-1H-1,4-diazepin-1-yl)-7-oxo-6,7,8-tetrahydropyrimido[4,5-d]pyrimidin-4-yl]-4-methyl-N-(1-methylethyl)benzamide trifluoroacetate] here?
**A.** statistically nonsignificant inhibition of neutrophilia

**Q.** With `CSc1ccc(NC(=O)c2ccc(C)c(-c3nc(NCCN(C)C)nc4c3CNC(=O)N4c3c(F)cccc3F)c2)cc1` [Example 127, 3-(8-(2,6-difluorophenyl)-2-{[2-(dimethylamino)ethyl]amino}-7-oxo-5,6,7,8-tetrahydropyrimido[4,5-d]pyrimidin-4-yl)-4-methyl-N-[4-(methylthio)phenyl]benzamide] as the compound, how does the “inhibition of neutrophilia” value read?
**A.** statistically significant inhibition of neutrophilia

**Q.** Which “inhibition of neutrophilia” value does the source give for `Cc1ccc(C(=O)Nc2ccc(F)cc2)cc1-c1nc(N2CCC(N3CCCCC3)CC2)nc2c1CNC(=O)N2c1c(F)cccc1F` [87(b), 3-[2-(1,4′-bipiperidin-1′-yl)-8-(2,6-difluorophenyl)-7-oxo-5,6,7,8-tetrahydropyrimido[4,5-d]pyrimidin-4-yl]-N-(4-fluorophenyl)-4-methylbenzamide] here?
**A.** statistically nonsignificant inhibition of neutrophilia

**Q.** Which “inhibition of neutrophilia” value does the source give for `Cc1ccc(C(=O)NC(C)C)cc1-c1nc(NCCCN(C)C)nc2c1CNC(=O)N2c1c(F)cccc1F` [Example 40, 3-(8-(2,6-difluorophenyl)-2-{[3-(dimethylamino)propyl]amino}-7-oxo-5,6,7,8-tetrahydropyrimido[4,5-d]pyrimidin-4-yl)-4-methyl-N-(1-methylethyl)benzamide] here?
**A.** statistically significant inhibition of neutrophilia
